US20230100235A1, “ANTICANCER AGENT COMPOSITION” (CARNA BIOSCIENCES, INC., priority 2020, published 2023)

Assays:
OCI-Ly10 cells [1] = assay: Cell proliferation suppression test of single agents, OCI-Ly10 (Alamar Blue, 96 h); format: cell-based, Human; details: Homo sapiens, OCI-Ly10, single agent, read-out: Inhibitory Activity on cell proliferation IC50 OCI-Ly10
Method: Human lymphoma cell line OCI-Ly10 cells (obtained from University Health Network) were cultured in a 5% CO2 incubator using IMDM medium (Iscove's Modified Dulbecco's Medium, Thermo Fisher Scientific Inc.) containing 20% fetal bovine serum (GE Healthcare) and 1% penicillin streptomycin (NACALAI TESQUE, INC.).
(§1) The OCI-Ly10 or U2932 cells (20000 cells/well) were seeded into 96-well plates (cell plates), to which the test compound diluted with the medium was added at final concentrations of 0.009 nM to 30000 nM (a final DMSO concentration of 0.3%), and after 96 hours of culture, an Alamar Blue reagent (Thermo Fisher Scientific Inc.) was added. After 3 hours, the fluorescence of excitation wavelength 560 nm/fluorescence wavelength 590 nm was measured and IC50 values of inhibitory activity were determined by setting a compound-free and cell-free well as 100% and a compound-free and cell-containing well as 0%.

U2932 cells [2] = assay: Cell proliferation suppression test of single agents, U2932 (Alamar Blue, 96 h); format: cell-based, Human; details: Homo sapiens, U2932, single agent, read-out: Inhibitory Activity on cell proliferation IC50 U2932
Method: Human lymphoma cell line U2932 cells (obtained from DSMZ) were cultured in a 5% CO2 incubator using RPMI medium (Roswell Park Memorial Institute medium, Thermo Fisher Scientific Inc.) containing 10% fetal bovine serum (GE Healthcare) and 1% penicillin streptomycin (NACALAI TESQUE, INC.).
as §1

[3] = tested on: BTK-C481S-mutant OCI-Ly10 cells; assay: Cell proliferation suppression test of single agents, BTK-C481S-mutant OCI-Ly10; format: cell-based, Human; details: Homo sapiens, OCI-Ly10; single agent; read-out: Inhibitory activity on cell proliferation OCI-Ly10 BTK-C481S IC50
Method: as §1
(§2) BTK-C481S-mutant OCI-Ly10 cells were produced by point mutation knock-in using the CRISPR-Cas9 system. Cas9 protein (Thermo Fisher Scientific Inc.), guide RNA prepared with GeneArt™ Precision gRNA Synthesis Kit (Thermo Fisher Scientific Inc.), and a single-stranded synthetic oligonucleotide to replace 481st cysteine residue of BTK with a serine residue were introduced into OCI-Ly10 cells by an electroporation method. The resulting modified OCI-Ly10 cells were cultured in the presence of ibrutinib, and the grown cells were used as BTK-C481S-mutant OCI-Ly10 cells. Transduction of the mutation was confirmed by genomic DNA and mRNA sequence analysis.
In the same manner as in Test Example 1, IC50 values for each inhibitor single agent were determined.

OCI-Ly10 cells [4] = assay: Dose-response study of BTK inhibitor in the presence of BCL-2 inhibitor, OCI-Ly10; format: cell-based; details: Homo sapiens, read-out: Inhibitory activity on cell proliferation OCI-Ly10 IC50
Method: as §1
(§3) Changes in IC50 values of the BTK inhibitor in the presence of the BCL-2 inhibitor at various concentrations were examined.

U2932 cells [5] = assay: Dose-response study of BTK inhibitor in the presence of BCL-2 inhibitor, U2932; format: cell-based; details: Homo sapiens, read-out: Inhibitory activity on cell proliferation U2932 IC50
Method: as §1, §3
From the result obtained for the BCL-2 inhibitor used as a single agent, BCL-2 inhibitor concentrations for three doses were selected for each cancer cell line.

[6] = tested on: BTK-C481S-mutant OCI-Ly10 cells; assay: Dose-response study of BTK inhibitor in the presence of BCL-2 inhibitor, BTK-C481S-mutant OCI-Ly10; format: cell-based; details: Homo sapiens, read-out: Inhibitory activity on cell proliferation OCI-Ly10 BTK-C481S IC50
Method: as §2
BTK-C481S-mutant lymphoma cells were used to examine changes in IC50 values of the BTK inhibitor in the presence of various concentrations of BCL-2 inhibitor.
From the results obtained for the BCL-2 inhibitor used as a single agent, BCL-2 inhibitor concentrations for three doses were selected for BTK-C481-mutant OCI-Ly10 cells.

[7] = tested on: BTK-C481S-mutant OCI-Ly10 cells; assay: Combined effect by BLISS score, BTK-C481S-mutant OCI-Ly10; format: cell-based, Human; details: combination with venetoclax, positive = synergistic
Method: After 96 hours of culture, an Alamar Blue reagent was added, and 3 hours later, fluorescence of excitation wavelength 560 nm/fluorescence wavelength 590 nm was measured. Cell proliferation inhibition rate and viability (100−inhibition rate %) were determined by setting a compound-free and cell-free well as 100% and a compound-free and cell-containing well as 0%.
as §2
The BLISS score was calculated in the same manner as in Example 1.

[8] = OCI-Ly10, in the presence of S-55746 10 nM
[9] = OCI-Ly10, in the presence of S-55746 30 nM
[10] = OCI-Ly10, in the presence of S-55746 100 nM
[11] = OCI-Ly10, in the presence of navitoclax 10 nM
[12] = OCI-Ly10, in the presence of navitoclax 30 nM
[13] = OCI-Ly10, in the presence of navitoclax 100 nM
[14] = OCI-Ly10, in the presence of obatoclax mesylate 50 nM
[15] = OCI-Ly10, in the presence of obatoclax mesylate 100 nM
[16] = OCI-Ly10, in the presence of obatoclax mesylate 200 nM
[17] = OCI-Ly10, in the presence of venetoclax 1 nM
[18] = OCI-Ly10, in the presence of venetoclax 3 nM
[19] = OCI-Ly10, in the presence of venetoclax 10 nM
[20] = OCI-Ly10, obatoclax mesylate 0 nM

SMILES: Nc1nc(-c2cccc(-n3ccc4cc(C5CC5)cc(F)c4c3=O)c2CO)c2cc(C3=CCN(C4COC4)CC3)[nH]c2n1 [Compound (I-A), 2-(3-{2-amino-6-[1-(oxetan-3-yl)-1,2,3,6-tetrahydropyridin-4-yl]-7H-pyrrolo[2,3-d]pyrimidin-4-yl}-2-(hydroxymethyl)phenyl)-6-cyclopropyl-8-fluoroisoquinolin-1(2H)-one]
- IC50 (OCI-Ly10 cells [1]): 2 nM
- IC50 (U2932 cells [2]): 12500 nM
- IC50 [3]: 15 nM
- IC50 (OCI-Ly10 cells [4]; OCI-Ly10, S-55746 0 nM): 2.1 nM
- IC50 (OCI-Ly10 cells [4]; [8]): 1.3 nM
- IC50 (OCI-Ly10 cells [4]; [9]): 1.1 nM
- IC50 (OCI-Ly10 cells [4]; [10]): 0.6 nM
- IC50 (OCI-Ly10 cells [4]; [11]): 1.4 nM
- IC50 (OCI-Ly10 cells [4]; [12]): 1.1 nM
- IC50 (OCI-Ly10 cells [4]; [13]): 0.8 nM
- IC50 (OCI-Ly10 cells [4]; [14]): 0.9 nM
- IC50 (OCI-Ly10 cells [4]; [15]): 0.9 nM
- IC50 (OCI-Ly10 cells [4]; [16]): 0.9 nM
- IC50 (OCI-Ly10 cells [4]; [17]): 1.5 nM
- IC50 (OCI-Ly10 cells [4]; [18]): 1.5 nM
- IC50 (OCI-Ly10 cells [4]; [19]): 1.3 nM
- IC50 (OCI-Ly10 cells [4]; [20]): 1.2 nM
- IC50 (OCI-Ly10 cells [4]; OCI-Ly10, venetoclax 0 nM): 2.1 nM
- IC50 (U2932 cells [5]; U2932, S-55746 0 nM): > 30000 nM
- IC50 (U2932 cells [5]; U2932, in the presence of S-55746 100 nM): 3480 nM
- IC50 (U2932 cells [5]; U2932, in the presence of S-55746 300 nM): 480 nM
- IC50 (U2932 cells [5]; U2932, in the presence of S-55746 1000 nM): 22 nM
- IC50 (U2932 cells [5]; U2932, in the presence of navitoclax 30 nM): 12000 nM
- IC50 (U2932 cells [5]; U2932, in the presence of navitoclax 100 nM): 1950 nM
- IC50 (U2932 cells [5]; U2932, in the presence of navitoclax 300 nM): 23 nM
- IC50 (U2932 cells [5]; U2932, in the presence of obatoclax mesylate 50 nM): 19600 nM
- IC50 (U2932 cells [5]; U2932, in the presence of obatoclax mesylate 100 nM): 13500 nM
- IC50 (U2932 cells [5]; U2932, in the presence of venetoclax 3 nM): 4800 nM
- IC50 (U2932 cells [5]; U2932, in the presence of venetoclax 10 nM): 1100 nM
- IC50 (U2932 cells [5]; U2932, in the presence of venetoclax 100 nM): 14 nM
- IC50 (U2932 cells [5]; U2932, navitoclax 0 nM): 28500 nM
- IC50 (U2932 cells [5]; U2932, obatoclax mesylate 0 nM): 25900 nM
- IC50 (U2932 cells [5]; U2932, venetoclax 0 nM): 13600 nM
- IC50 ([6]; OCI-Ly10, S-55746 0 nM): 11 nM
- IC50 [6, 8]: 7.9 nM
- IC50 [6, 9]: 5.2 nM
- IC50 [6, 10]: 3.1 nM
- IC50 [6, 11]: 12 nM
- IC50 [6, 12]: 8.2 nM
- IC50 [6, 13]: 4.1 nM
- IC50 [6, 14]: 5.4 nM
- IC50 [6, 15]: 4.4 nM
- IC50 [6, 16]: 4 nM
- IC50 [6, 17]: 10 nM
- IC50 [6, 18]: 6.9 nM
- IC50 [6, 19]: 4.8 nM
- IC50 ([6]; OCI-Ly10, navitoclax 0 nM): 15 nM
- IC50 [6, 20]: 16 nM
- IC50 ([6]; OCI-Ly10, venetoclax 0 nM): 15 nM
- BLISS score [7]: positive values
